# Data: publication PMC12040169 (PLOS Biology, 2025)
# Like-named read-outs stand apart in the source and are kept apart here.
# How the values were obtained:
# [1] = biological target: T1, acyl-modification-free ctFabH (Chlamydia trachomatis, UniProt O84242); experiment: intact protein LC/MS; format: biochemical; details: covalent acyl-enzyme intermediate; 10 µM protein, 50 µM acyl-CoA, pH 7.0
# T1 construct: gene fabH
# T1 sequence (O84242 2-327): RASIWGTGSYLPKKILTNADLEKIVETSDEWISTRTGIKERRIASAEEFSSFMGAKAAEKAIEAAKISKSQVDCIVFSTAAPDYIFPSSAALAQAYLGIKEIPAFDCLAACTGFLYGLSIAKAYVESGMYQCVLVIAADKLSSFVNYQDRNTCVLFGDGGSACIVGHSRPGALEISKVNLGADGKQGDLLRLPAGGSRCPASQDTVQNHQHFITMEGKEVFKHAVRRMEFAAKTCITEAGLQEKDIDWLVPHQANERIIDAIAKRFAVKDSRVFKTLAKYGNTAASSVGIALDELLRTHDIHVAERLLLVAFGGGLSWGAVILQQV
# [2] = biological target: T2, ctFabH (CTL2 FabH), His6(-fMet)SG-ctFabH (Chlamydia trachomatis, UniProt O84242); experiment: continuous UV assay of acetoacetyl-CoA at […] nm; format: biochemical; details: covalent; 20 µM enzyme, 30 µM compound, 100 µM acetyl-CoA, 100 µM malonyl-CoA, pH 8.0, 25 °C, 50 mM MgCl2; with or without CoA preincubation
# T2 construct: synthetic gene, modified pRSF-Duet1, E. coli host; partly acylated (mainly pentanoyl) as purified
# T2 sequence (O84242 2-327): T1 sequence (O84242 2-327)
# [3] = biological target: T1, acyl-modification-free ctFabH; experiment: intact protein LC/MS; MS/MS of tryptic peptides; format: binding; details: covalent; active site cysteine; 10 µM protein, 50 µM compound, pH 7.0, 10 min to 1 h
# in vitro = experiment: in vitro; design: Viability of infected HeLa host cells, resazurin conversion, bulk resorufin fluorescence relative to DMSO; details: human, hela cells; bulk resorufin, mean of 3
# [4] = tested on: T3, C. trachomatis L2/434/Bu expressing GFP (CTL2-GFP); experiment: microbe, parasite or virus in culture; design: C. trachomatis GFP growth in infected HeLa cells, bulk GFP fluorescence normalised to DMSO; details: Chlamydia trachomatis, HeLa, 26 h; read-out: IC50 (µM), bulk GFP fluorescence
# T3 construct: L2/434/Bu GFP intracellular growth in HeLa cells
# Experimental: (§1) MICs were calculated as described above.
# [5] = tested on: T3, C. trachomatis L2/434/Bu expressing GFP (CTL2-GFP); experiment: microbe, parasite or virus in culture; design: C. trachomatis total inclusion area by high-content imaging, normalised to DMSO; details: Chlamydia trachomatis, HeLa, 28.5 h; read-out: IC50 (µM), total inclusion area
# In short: (§2)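 Read-out combines bulk fluorescence and imaging: GFP tracks chlamydial growth, resorufin tracks host cell viability. Plates were then fixed and Hoechst-stained so inclusions and nuclei could be imaged and counted per well.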
# [6] = tested on: T4, CTL2-GFP (C. trachomatis L2/434/Bu, GFP-expressing); experiment: microbe, parasite or virus in culture; design: C. trachomatis growth in HeLa, dose-response, mean of bulk GFP fluorescence and imaged total inclusion area; details: Chlamydia trachomatis, HeLa, 28.5 h; mean of GFP and inclusion area
# T4 construct: L2/434/Bu, GFP-expressing
# In short: as §2
# B. adolescentis = tested on: T5, B. adolescentis; experiment: microbe, parasite or virus in culture; design: Microbial growth in liquid dilution assay, OD600 relative to DMSO control; details: Bifidobacterium adolescentis; estimated IC50; read-out: B. adolescentis, IC50 (µM) estimate
# T5 construct: DSM 20083
# In short: (§3)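 Growth of commensal bacteria was measured in a dilution assay with test compounds at concentrations including 30 µM. In a separate radial diffusion format, bacteria were exposed to compounds for 24–48 h and growth inhibition zones were measured.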
# B. thetaiotaomicron = tested on: T6, B. thetaiotaomicron; experiment: microbe, parasite or virus in culture; design: Microbial growth in liquid dilution assay, OD600 relative to DMSO control; details: Bacteroides thetaiotaomicron; estimated IC50; read-out: B. thetaiotaomicron, IC50 (µM) estimate
# T6 construct: DSM 2079
# In short: as §3
# E. coli = tested on: T7, E. coli; experiment: microbe, parasite or virus in culture; design: Microbial growth in liquid dilution assay, OD600 relative to DMSO control; details: Escherichia coli; estimated IC50; read-out: E. coli, IC50 (µM) estimate
# T7 construct: DSM 301
# In short: as §3
# E. faecalis = tested on: T8, E. faecalis; experiment: microbe, parasite or virus in culture; design: Microbial growth in liquid dilution assay, OD600 relative to DMSO control; details: Enterococcus faecalis; estimated IC50; read-out: E. faecalis, IC50 (µM) estimate
# T8 construct: DSM 20478
# In short: as §3
# L. reuteri = tested on: T9, L. reuteri; experiment: microbe, parasite or virus in culture; design: Microbial growth in liquid dilution assay, OD600 relative to DMSO control; details: Limosilactobacillus reuteri; estimated IC50; read-out: L. reuteri, IC50 (µM) estimate
# T9 construct: DSM 20016
# In short: as §3
# L. crispatus = tested on: T10, L. crispatus; experiment: microbe, parasite or virus in culture; design: Microbial growth in liquid dilution assay, OD600 relative to DMSO control; details: Lactobacillus crispatus; estimated IC50; read-out: L. crispatus, IC50 (µM) estimate
# T10 construct: DSM 20584
# L. iners = tested on: T11, L. iners; experiment: organism not typed; design: Microbial growth in liquid dilution assay, OD600 relative to DMSO control; details: estimated IC50; read-out: L. iners, IC50 (µM) estimate
# T11 construct: DSM 13335
# G. vaginalis = tested on: T12, G. vaginalis; experiment: microbe, parasite or virus in culture; design: Microbial growth in liquid dilution assay, OD600 relative to DMSO control; details: Gardnerella vaginalis, read-out: G. vaginalis, IC50 (µM) estimate
# T12 construct: DSM 4944
# C. albicans = tested on: T13, C. albicans; experiment: microbe, parasite or virus in culture; design: Microbial growth in liquid dilution assay, OD600 relative to DMSO control; details: Candida albicans, read-out: C. albicans, IC50 (µM) estimate
# T13 construct: DSM 1577
# [7] = tested on: T3, C. trachomatis L2/434/Bu expressing GFP (CTL2-GFP); experiment: microbe, parasite or virus in culture; design: species or system HeLa; C. trachomatis GFP growth in infected HeLa cells, bulk GFP fluorescence normalised to DMSO; details: Chlamydia trachomatis, 26 h; read-out: MIC (µM), bulk GFP fluorescence
# Experimental: as §1
# [8] = tested on: T3, C. trachomatis L2/434/Bu expressing GFP (CTL2-GFP); experiment: microbe, parasite or virus in culture; design: species or system HeLa; C. trachomatis total inclusion area by high-content imaging, normalised to DMSO; details: Chlamydia trachomatis, 28.5 h; read-out: MIC (µM), total inclusion area
# Source text: We screened a library of 36,785 small molecules displaying drug-like properties and covering a wide chemical space (Fig 1A and S2A Data). In this process, we also complemented the assay described above with an imaging-based readout (Fig 1B). After measurements of bulk GFP and resorufin fluorescence, cells were fixed, stained with the DNA dye Hoechst, and imaged at a high-content imaging platform to detect chlamydial inclusions (GFP) and host cell nuclei (Hoechst). The total area and number of inclusions in individual wells and the number of nuclei then served as additional proxies for chlamydial growth and host cell viability. […] MICs were calculated as described above.
# [9] = tested on: T4, CTL2-GFP (C. trachomatis L2/434/Bu, GFP-expressing); experiment: microbe, parasite or virus in culture; design: species or system HeLa; C. trachomatis growth in HeLa, dose-response, mean of bulk GFP fluorescence and imaged total inclusion area; details: Chlamydia trachomatis, 28.5 h; mean of GFP and inclusion area
# In short: as §2
compound,measurement,setting,value
CC[C@H](C)C(=O)SCCNC(=O)CCNC(=O)[C@H](O)C(C)(C)COP(=O)(O)OP(=O)(O)OC[C@H]1O[C@@H](n2cnc3c(N)ncnc32)[C@H](O)[C@@H]1OP(=O)(O)O [2-methylbutyryl-CoA],intact protein LC/MS,[1],incubation of this stripped ctFabH with 2-methylbutyryl-CoA or isovaleryl-CoA
O=C1Oc2nc3ccccc3cc2CN1C1CC1 [c1e],inhibition,[2],c1e displayed inhibitory activity towards ctFabH when added at about equimolar concentration
same,intact protein LC/MS; MS/MS of tryptic peptides,[3],incubation with c1e generated an FabH-c1e adduct
same,"viability at 28.5 h, 0.000416667 µM",in vitro,95.3%
same,"viability at 28.5 h, 0.00125 µM",in vitro,82.8%
same,"viability at 28.5 h, 0.00375 µM",in vitro,88.7%
same,"viability at 28.5 h, 0.0123333 µM",in vitro,87.6%
same,"viability at 28.5 h, 0.037 µM",in vitro,93.9%
same,"viability at 28.5 h, 0.111 µM",in vitro,89.2%
same,"viability at 28.5 h, 0.333 µM",in vitro,91.7%
same,"viability at 28.5 h, 1 µM",in vitro,89.5%
same,"viability at 28.5 h, 3 µM",in vitro,98.2%
same,"viability at 28.5 h, 10 µM",in vitro,103%
same,"viability at 28.5 h, 30 µM",in vitro,46.5%
same,IC50,[4],0.0226 µM
same,IC50,[5],0.0199 µM
same,IC50,[6],0.0213 µM
same,IC50,B. adolescentis,> 30 µM
same,IC50,B. thetaiotaomicron,> 30 µM
same,IC50,E. coli,> 30 µM
same,IC50,E. faecalis,> 30 µM
same,IC50,L. reuteri,> 30 µM
same,IC50,L. crispatus,> 30 µM
same,IC50,L. iners,> 30 µM
same,IC50,G. vaginalis,> 30 µM
same,IC50,C. albicans,> 30 µM
same,MIC,[7],0.038 µM
same,MIC,[8],0.046 µM
same,MIC,[9],0.042 µM
